Measurements taken from patent US7981911B2, “Pharmaceutical formulations” (Abbott Laboratories, priority 1999, dated 2011).

Experiment: oral bioavailability in dogs
Format: in vivo
Conditions: both sexes, beagle, dog, plasma; unformulated solid in a capsule dosage form; 5 mg/kg oral dose in dogs
Method: Dogs (beagle dogs, mixed sexes, weighing 7-14 kg) were fasted overnight prior to dosing, but were permitted water ad libitum. Each dog received a 100 μg/kg subcutaneous dose of histamine approximately 30 minutes prior to dosing. Each dog received a single dosage form corresponding to a 5 mg/kg dose of the drug. The dose was followed by approximately 10 milliliters of water. Blood samples were obtained from each animal prior to dosing and 0.25, 0.5, 1.0, 1.5, 2, 3, 4, 6, 8, 10, and 12 hours after drug administration. The plasma was separated from the red cells by centrifugation and frozen (−30° C.) until analysis. Concentrations of parent drug were determined by reverse phase HPLC with low wavelength UV detection following liquid-liquid extraction of the plasma samples. The parent drug area under the curve was calculated by the trapezoidal method over the time course of the study. The absolute bioavailability of each test composition was calculated by comparing the area under the curve after oral dosing to that obtained from a single intravenous dose. Each capsule or capsule composition was evaluated in a group containing at least six dogs; the values reported are averages for each group of dogs.

bioavailability: < 2%
Structure (SMILES): CC(C)c1nc(CN(C)C(=O)NC(C(=O)NC(Cc2ccccc2)CC(O)C(Cc2ccccc2)NC(=O)OCc2cncs2)C(C)C)cs1 (stereo not shown) [compound of formula I]
